For orientation: pIC50 means the negative decadic logarithm of the IC50, by convention in mol/L. Lower therefore signals a high IC50.

pIC50: −log10 of the molar value.

The assay deals with Human immunodeficiency virus type 1 integrase (Human immunodeficiency virus 1, UniProt Q7ZJM1).
Chain of Human immunodeficiency virus type 1 integrase (Q7ZJM1 whole entry): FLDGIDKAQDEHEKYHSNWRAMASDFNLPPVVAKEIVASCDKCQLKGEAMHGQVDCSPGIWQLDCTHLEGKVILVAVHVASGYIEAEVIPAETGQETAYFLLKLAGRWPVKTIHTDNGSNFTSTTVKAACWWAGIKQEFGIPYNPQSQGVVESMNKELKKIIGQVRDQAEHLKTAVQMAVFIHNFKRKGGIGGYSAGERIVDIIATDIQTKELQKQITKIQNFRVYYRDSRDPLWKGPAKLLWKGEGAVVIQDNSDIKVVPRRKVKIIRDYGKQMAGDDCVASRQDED

Description: Inhibitory activity against HIV-1 integrase

For the molecule `[N-]=[N+]=NC1CC(N=[N+]=[N-])c2cc(/C(O)=C\C(=O)C(=O)O)ccc21` (stereo not drawn), the negative logarithm of the IC50 (pIC50) was 6.44.
The figure for `[N-]=[N+]=NC1CCC(N=[N+]=[N-])c2cc(/C(O)=C\C(=O)C(=O)O)ccc21` (stereo not drawn) is 6.49.
The value for `N#CCCc1cccc(/C(O)=C\C(=O)C(=O)O)c1` was 5.82.
The molecule `[N-]=[N+]=NCc1ccc(/C(O)=C\C(=O)C(=O)O)cc1CN=[N+]=[N-]` gave a pIC50 of 6.59.
Molecule `CC1C=C(NC(=O)C2=CC(NC(=O)C3=CC(NC(=O)c4ccc(C(=O)NC5=CC(C)C(C(=O)NC6=CC(C)C(C(=O)NC7=CC(C)C(C(=O)NCCC(=N)N)=C7)=C6)=C5)cc4)=CC3C)=CC2C)C=C1C(=O)NCCC(=N)N` (stereo not drawn) showed a pIC50 of 7.05.
The value for `COc1cc(C)c2c(c1C)OC(=O)c1c(C)c(Cl)c(O)c(C=O)c1O2` was 5.68; that for `CC1=NN(C(=O)c2ccccc2O)C(=O)/C1=C\c1cccc(O)c1` was 5.13; that for `CCCCCc1cc(O)cc2c1Oc1c(C=O)c(O)c(Cl)c(C(=O)CCCC)c1C(=O)O2` was 4.47.
The value for `O=C1C(O)=C(C(C2=C(O)C(=O)c3ccccc3C2=O)c2ccc(Cl)cc2)C(=O)c2ccccc21` was < 4.00; that for `CC(CCC(=O)O)C1CC[C@H]2[C@@H]3C(OC(=O)/C=C/c4ccc(O)c(O)c4)CC4CC(OC(=O)/C=C/c5ccc(O)c(O)c5)CC[C@]4(C)[C@H]3CC(OC(=O)/C=C/c3ccc(O)c(O)c3)[C@]12C` (stereo partly drawn) was 6.01.
Molecule `O=C(O)C(=O)/C=C(\O)c1cc(OCc2ccccc2)cc(OCc2ccccc2)c1` gave a pIC50 of 7.23.
The figure for `COC(=O)c1ccc(CC(=O)c2c(C)cc(O)c(C=O)c2O)c(C)c1O` is 3.91.
The figure for `CN(C)Cc1ccc2n1Cc1ccccc1SC2c1ccc(F)cc1` (stereo not drawn) is 3.00; for `O=C1c2ccccc2SCC2CSC(c3ccccc3)N12` (stereo not drawn) it is 3.49.
With `O=C(NNCC(O)COc1ccccc1)c1ccccc1O` (stereo not drawn), the pIC50 was < 3.70.
As to `COc1cc(C(C2=C(O)C(=O)c3ccccc3C2=O)C2C(=O)c3ccccc3C(=O)C2O)cc(Br)c1O` (stereo not drawn), the pIC50 was 4.70.
The figure for `CC1C=C(NC(=O)C2=CC(NC(=O)C3=CC(NC(=O)c4ccc(C(=O)NC5=CC(C)C(C(=O)NC6=CC(C)C(C(=O)NC7=CC(C)C(C(=O)NCCC(=N)N)=C7)=C6)=C5)nc4)=CC3C)=CC2C)C=C1C(=O)NCCC(=N)N` (stereo not drawn) is 7.00; for `CC1C=C(NC(=O)C2=CC(NC(=O)C3=CC(N(C)C(=O)c4ccc(C(=O)N(C)C5=CC(C)C(C(=O)NC6=CC(C)C(C(=O)NC7=CC(C)C(C(=O)NCCCN(C)C)=C7)=C6)=C5)cc4)=CC3C)=CC2C)C=C1C(=O)NCCCN(C)C` (stereo not drawn) it is 7.15.
The figure for `COc1ccc(/C=C2\C(=O)N(C(=O)c3ccccc3O)N=C2C)cc1` is 6.22; for `CC1=NN(C(=O)c2ccc(Cl)cc2)C(=O)/C1=C\c1ccc(O)cc1` it is < 3.53; for `O=C(/C=C/c1ccc(O)c(O)c1)NCC(OC(=O)/C=C/c1ccc(O)c(O)c1)C(=O)O` (stereo not drawn) it is 6.43.
The figure for `CC(Cc1ccc(O)c(O)c1)(C(=O)O)C(C)(Cc1ccc(O)c(O)c1)C(=O)O` (stereo in doubt; form 1) is 6.36; for `CC(Cc1ccc(O)c(O)c1)(C(=O)O)C(C)(Cc1ccc(O)c(O)c1)C(=O)O` (stereo in doubt; form 2) it is 6.64.
